According to patent US20120040951A1, “HETEROARYL COMPOUNDS USEFUL AS RAF KINASE INHIBITORS” (priority 2008, published 2012):

Key:
V599E Raf = V599E Raf (Homo sapiens, UniProt P15056, V600E); experiment: Biochemical FRET assay, mutant Raf (phosphorylation of MEK); settings: 0.125 nM V599E Raf, 100 nM biotin-MEK, 25 μM ATP, read-out: Raf (mut) inhibition
Experimental: (1) Biochemical FRET Assay […]
Inhibitors were diluted 4-fold in 100% DMSO and added to a final concentration of 10 μM to 40 μM to a solution containing 100 nM biotin-MEK, 0.125 nM V599E Raf in 50 mM HEPES, pH 7.4, 60 mM NaCl, 3 mM MgCl2, 2 mM DTT, 0.25 mM MnCl2, 0.01% BSA, and 0.01% Tween-20 and incubated for 20 minutes at room temperature. The kinase reaction was started by the addition of 25 μM ATP to a final volume of 45 μl and allowed to progress for 60 minutes. The reaction was stopped with 15 mM EDTA and 20 nM Streptavidin-APC, 2.5 nM Polyclonal anti p-MEK1/2 (Ser217/221), 2.5 nM Eu-labeled anti-rabbit IgG were added in Lance detection buffer and 5% Superblock in PBS for a final volume of 100 μl. The detection reaction was incubated for 90 minutes at room temperature and then read on an Analyst plate reader using standard TR-FRET (time resolved fluorescence resonance energy transfer) settings for Eu and APC.
Compounds having an activity designated as “A” provided an IC50≦100 nM; compounds having an activity designated as “B” provided an IC50 of 100-1000 nM; and compounds having an activity designated as “C” provided an IC50 of 1000-10,000 nM.

[1] = tested on: phospho-ERK in melanoma derived WM-266-4 cells; experiment: Mechanistic cellular assay for Raf kinase activity (phospho-ERK, Bio-Plex); format: cell-based; settings: Homo sapiens, treated 1-2 hr at 37° C., serum free medium, read-out: pERK EC50
Outline: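 WM-266-4 melanoma cells (wild-type/V600D BRaf) grown overnight in 10% FBS RPMI, then treated 1–2 h at 37 °C in serum-free RPMI with eight 3-fold dilutions of compound (from 5 mM DMSO stock, 1000× dilution). Lysate phospho-ERK1,2 quantified by Bio-Plex bead immunoassay.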

V599E Raf, sequence (P15056 whole entry V600E): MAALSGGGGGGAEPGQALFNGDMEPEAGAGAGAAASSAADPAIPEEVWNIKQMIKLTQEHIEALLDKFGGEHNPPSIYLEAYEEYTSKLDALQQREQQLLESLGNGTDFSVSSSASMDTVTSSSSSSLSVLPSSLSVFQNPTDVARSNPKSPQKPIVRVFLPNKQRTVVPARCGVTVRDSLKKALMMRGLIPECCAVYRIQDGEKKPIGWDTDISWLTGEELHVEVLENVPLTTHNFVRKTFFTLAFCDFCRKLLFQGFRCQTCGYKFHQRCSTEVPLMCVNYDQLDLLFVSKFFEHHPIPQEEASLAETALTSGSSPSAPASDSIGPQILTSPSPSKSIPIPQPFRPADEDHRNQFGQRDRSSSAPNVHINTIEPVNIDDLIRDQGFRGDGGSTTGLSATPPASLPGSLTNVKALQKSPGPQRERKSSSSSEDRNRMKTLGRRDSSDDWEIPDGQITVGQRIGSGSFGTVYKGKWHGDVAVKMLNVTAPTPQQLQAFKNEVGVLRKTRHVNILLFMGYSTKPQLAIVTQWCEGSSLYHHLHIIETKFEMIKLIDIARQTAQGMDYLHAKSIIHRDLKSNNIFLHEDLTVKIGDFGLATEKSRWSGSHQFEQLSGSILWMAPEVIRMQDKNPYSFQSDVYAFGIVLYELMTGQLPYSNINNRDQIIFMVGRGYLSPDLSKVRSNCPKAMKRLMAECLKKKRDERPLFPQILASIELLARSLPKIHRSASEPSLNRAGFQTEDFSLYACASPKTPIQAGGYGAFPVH

IC50 (V599E Raf) [nM] | EC50 [1] [nM] | SMILES
≤ 100 | ≤ 100 | C[C@@H](NC(=O)c1cc2c(cn1)ncn2C)c1cnc(Nc2ccc(C(F)(F)F)cc2)cn1 (single isomer, unassigned) [Example 37]
≤ 100 | ≤ 100 | C[C@@H](NC(=O)c1cc2c(cn1)ncn2C1CCC1)c1cnc(Nc2ccc(C(F)(F)F)cc2)cn1 (single isomer, unassigned) [Example 188]
100 to 1000 | 1000 to 10000 | C[C@@H](NC(=O)c1cc2c(cn1)ncn2C)c1cnc(Nc2ccc(C(F)(F)F)nc2)s1 (single isomer, unassigned) [Example 266]
≤ 100 | ≤ 100 | C[C@H](NC(=O)c1cc2c(cn1)ncn2C)c1cnc(Nc2ccc(C(F)(F)F)nc2)s1 (single isomer, unassigned) [Example 267]
≤ 100 | 100 to 1000 | CCN1CC(n2cnc3cnc(C(=O)N[C@H](C)c4cnc(Nc5ccc(C(F)(F)F)cc5)cn4)cc32)C1 (stereo in doubt) [Example 180]
≤ 100 | 1000 to 10000 | CC(NC(=O)c1cc2ncn(C)c2cn1)c1cnc(Nc2ccc(C(F)(F)F)cc2)s1 (centres unmarked) [Example 1]
≤ 100 | ≤ 100 | CC(NC(=O)c1cc2c(cn1)ncn2C)c1cnc(Nc2ccc(C(F)(F)F)cc2)s1 (centres unmarked) [Example 2]
≤ 100 | 1000 to 10000 | C[C@H](NC(=O)c1cc2c(cn1)ncn2C)c1cnc(Nc2ccc(C(F)(F)F)cc2)s1 [Example 3]
≤ 100 | ≤ 100 | C[C@@H](NC(=O)c1cc2c(cn1)ncn2C)c1cnc(Nc2ccc(C(F)(F)F)cc2)s1 [Example 4]
≤ 100 | 100 to 1000 | CC(NC(=O)c1cc2nc[nH]c2cn1)c1cnc(Nc2ccc(C(F)(F)F)cc2)s1 (centres unmarked) [Example 5]
≤ 100 | ≤ 100 | CCn1cnc2cnc(C(=O)NC(C)c3cnc(Nc4ccc(C(F)(F)F)cc4)s3)cc21 (centres unmarked) [Example 6]
≤ 100 | ≤ 100 | CC(NC(=O)c1cc2c(cn1)ncn2CCN(C)C)c1cnc(Nc2ccc(C(F)(F)F)cc2)s1 (centres unmarked) [Example 7]
≤ 100 | ≤ 100 | C[C@@H](NC(=O)c1cc2c(cn1)ncn2C1CN(C(=O)OC(C)(C)C)C1)c1cnc(Nc2ccc(C(F)(F)F)cc2)s1 [Example 24]
≤ 100 | 100 to 1000 | CC(NC(=O)c1cc2c(cn1)ncn2CCO)c1cnc(Nc2ccc(C(F)(F)F)cc2)s1 (centres unmarked) [Example 25]
≤ 100 | 100 to 1000 | C[C@@H](NC(=O)c1cc2c(cn1)ncn2[C@@H]1CCNC1)c1cnc(Nc2ccc(C(F)(F)F)cc2)s1 [Example 26]
≤ 100 | 100 to 1000 | C[C@@H](NC(=O)c1cc2c(cn1)ncn2C1CNC1)c1cnc(Nc2ccc(C(F)(F)F)cc2)s1 [Example 27]
≤ 100 | ≤ 100 | CCN1CC[C@@H](n2cnc3cnc(C(=O)N[C@H](C)c4cnc(Nc5ccc(C(F)(F)F)cc5)s4)cc32)C1 [Example 28]
≤ 100 | ≤ 100 | C[C@@H](NC(=O)c1cc2c(cn1)ncn2[C@H]1CCN(C(=O)OC(C)(C)C)C1)c1cnc(Nc2ccc(C(F)(F)F)cc2)s1 [Example 29]
≤ 100 | ≤ 100 | CCN1CC(n2cnc3cnc(C(=O)N[C@H](C)c4cnc(Nc5ccc(C(F)(F)F)cc5)s4)cc32)C1 [Example 30]
≤ 100 | 100 to 1000 | C[C@@H](NC(=O)c1cc2c(cn1)ncn2[C@H]1CCNC1)c1cnc(Nc2ccc(C(F)(F)F)cc2)s1 [Example 31]
≤ 100 | 1000 to 10000 | CC(NC(=O)c1cc2c(cn1)ncn2C(CO)CO)c1cnc(Nc2ccc(C(F)(F)F)cc2)s1 (centres unmarked) [Example 32]
≤ 100 | 100 to 1000 | CCN1CC[C@H](n2cnc3cnc(C(=O)N[C@@H](C)c4cnc(Nc5ccc(C(F)(F)F)cc5)s4)cc32)C1 [Example 33]
≤ 100 | 100 to 1000 | CCNCCn1cnc2cnc(C(=O)NC(C)c3cnc(Nc4ccc(C(F)(F)F)cc4)s3)cc21 (centres unmarked) [Example 34]
≤ 100 | ≤ 100 | CC(NC(=O)c1cc2c(cn1)ncn2C)c1cnc(Nc2ccc(C(F)(F)F)cc2)cn1 (centres unmarked) [Example 35]
≤ 100 | 100 to 1000 | C[C@@H](NC(=O)c1cc2ncn(C)c2cn1)c1ncc(C(=O)Nc2cc(C(F)(F)F)c(Cl)cn2)s1 [Example 41]
≤ 100 | ≤ 100 | C[C@@H](NC(=O)c1cc2c(cn1)ncn2C)c1ncc(C(=O)Nc2cc(C(F)(F)F)c(Cl)cn2)s1 [Example 42]
≤ 100 | ≤ 100 | CC(NC(=O)c1cc2c(cn1)ncn2C)c1ncc(C(=O)Nc2cc(C(C)(C)C)on2)s1 (centres unmarked) [Example 43]

IC50 (V599E Raf) [nM] | EC50 [1] [nM] | SMILES
≤ 100 | 1000 to 10000 | CC(NC(=O)c1cncc(N)c1)c1ncc(C(=O)Nc2cc(C(F)(F)F)c(Cl)cn2)s1 (centres unmarked) [Example 44]
≤ 100 | 100 to 1000 | Cc1nc2cc(C(=O)N[C@H](C)c3ncc(C(=O)Nc4cc(C(F)(F)F)c(Cl)cn4)s3)ccc2[nH]1 [Example 49]
100 to 1000 | 1000 to 10000 | Cc1cn(-c2cncc(C(=O)NC(C)c3ncc(C(=O)Nc4cc(C(F)(F)F)c(Cl)cn4)s3)c2)cn1 (centres unmarked) [Example 51]
≤ 100 | 1000 to 10000 | Cc1nc2cc(C(=O)N[C@H](C)c3ncc(C(=O)Nc4cc(C(F)(F)F)c(Cl)cn4)s3)ccc2n1CCO [Example 52]
100 to 1000 | 1000 to 10000 | C[C@@H](NC(=O)c1ccc(N)cc1)c1ncc(C(=O)Nc2cc(C(F)(F)F)c(Cl)cn2)s1 [Example 54]
≤ 100 | 1000 to 10000 | C[C@@H](NC(=O)c1ccc2[nH]c(CO)nc2c1)c1ncc(C(=O)Nc2cc(C(F)(F)F)c(Cl)cn2)s1 [Example 55]
≤ 100 | 100 to 1000 | C[C@@H](NC(=O)c1ccc2[nH]ccc2c1)c1ncc(C(=O)Nc2cc(C(F)(F)F)c(Cl)cn2)s1 [Example 56]
≤ 100 | 1000 to 10000 | C[C@@H](NC(=O)c1ccc2[nH]nnc2c1)c1ncc(C(=O)Nc2cc(C(F)(F)F)c(Cl)cn2)s1 [Example 57]
≤ 100 | ≤ 100 | C[C@@H](NC(=O)c1ccc2ncccc2c1)c1ncc(C(=O)Nc2cc(C(F)(F)F)c(Cl)cn2)s1 [Example 58]
100 to 1000 | 1000 to 10000 | C[C@@H](NC(=O)c1ccc2[nH]c(C(F)(F)F)nc2c1)c1ncc(C(=O)Nc2cc(C(F)(F)F)c(Cl)cn2)s1 [Example 62]
100 to 1000 | 1000 to 10000 | C[C@@H](NC(=O)c1ccc2ncccc2c1)c1cc(C(=O)Nc2cnc(C(C)(C)C)nc2N)no1 [Example 65]
100 to 1000 | 1000 to 10000 | C[C@@H](NC(=O)c1ccc2sccc2c1)c1ncc(C(=O)Nc2cc(C(F)(F)F)c(Cl)cn2)s1 [Example 67]
≤ 100 | 1000 to 10000 | Cc1nc2cc(C(=O)N[C@H](C)c3ncc(C(=O)Nc4cc(C(F)(F)F)c(Cl)cn4)s3)ccc2n1C [Example 68]
≤ 100 | 1000 to 10000 | C[C@@H](NC(=O)c1ccc2c(c1)OCCN2C)c1ncc(C(=O)Nc2cc(C(F)(F)F)c(Cl)cn2)s1 [Example 71]
≤ 100 | 1000 to 10000 | CC(NC(=O)c1ccc2ncccc2c1)c1cnc(Nc2ccc(C(F)(F)F)cc2)s1 (centres unmarked) [Example 72]
100 to 1000 |  | C[C@@H](NC(=O)c1cnn2ccccc12)c1cc(C(=O)Nc2nc3ccc(F)cc3s2)on1 [Example 210]
1000 to 10000 |  | C[C@@H](NC(=O)c1cnn2ccccc12)c1cc(C(=O)NC2C[C@@H]3CC[C@H]2C3)on1 (some centres unmarked) [Example 213]
1000 to 10000 |  | C[C@@H]1[C@]2(C)CC[C@@]1(C)[C@@H](NC(=O)c1cc([C@@H](C)NC(=O)c3cnn4ccccc34)no1)C2 [Example 215]
1000 to 10000 |  | C[C@@H](NC(=O)c1cnn2ccccc12)c1cc(C(=O)NC2CC(C)(C)NC(C)(C)C2)on1 [Example 216]
100 to 1000 |  | C[C@@H](NC(=O)c1cnn2ccccc12)c1cc(C(=O)Nc2nc(C(C)(C)C)ncc2N)no1 [Example 228]
100 to 1000 |  | Cc1ccc(NC(=O)c2cc(C(C)(C)NC(=O)c3cnn4ccccc34)on2)cc1C(F)(F)F [Example 230]
 | 100 to 1000 | C[C@@H](NC(=O)c1cc2c(cn1)ncn2C1CN(S(=O)(=O)CC(F)(F)F)C1)c1cnc(Nc2ccc(C(F)(F)F)cc2)cn1 [Example 344]
 | ≤ 100 | C[C@@H](NC(=O)c1cc2c(cn1)ncn2C1CN(S(C)(=O)=O)C1)c1cnc(Nc2ccc(C(F)(F)F)cc2)cn1 [Example 345]
 | 1000 to 10000 | C[C@@H](NC(=O)c1cc2c(cn1)ncn2C1CN(CC(=O)O)C1)c1cnc(Nc2ccc(C(F)(F)F)cc2)s1 [Example 349]
 | 1000 to 10000 | CC(NC(=O)c1cc2c(cn1)ncn2CC(N)=O)c1cnc(Nc2ccc(C(F)(F)F)cc2)s1 (centres unmarked) [Example 355]
 | 1000 to 10000 | CC(NC(=O)c1cc2c(cn1)ncn2C)c1cnc(Nc2cc(CN(C)C)cc(C(F)(F)F)c2)s1 (centres unmarked) [Example 357]
